Measured values from patent publication US6693165B2 (Merck & Co., Inc., priority 2000, dated 2004).
Numbered stars: 1 amine (or outer) side, 2 acyl side, 3 side chain; on linkers, the order of the positions; unused ones are H or OH. Bridge positions count the residues as written; N and C are the ends. Square brackets hold non-standard residues; d marks the D form. Peptide text beside a SMILES is read from it. dPhe(4-tBu) = CC(C)(C)c1ccc(C[C@@H](N)C(=O)O)cc1; dPhe(4-Cl) = N[C@H](Cc1ccc(Cl)cc1)C(=O)O; dPhe(4-F) = N[C@H](Cc1ccc(F)cc1)C(=O)O; d2Nal = N[C@H](Cc1ccc2ccccc2c1)C(=O)O; Maleoyl = O=C(/C=C\C(=O)[*:2])[*:1]; dBta = N[C@H](Cc1csc2ccccc12)C(=O)O; Suc = O=C(CCC(=O)[*:2])[*:1]; Dap = NC[C@H](N)C(=O)O

Columns and labels:
human MC3 receptor = human MC3 receptor (Homo sapiens, UniProt P41968); experiment: Competitive binding assay, human MC3 receptor; conditions: hMC-3R (binding data), CHO cell membranes expressing human MC3 receptor; 200 pM [125I]-NDP-α-MSH; three independent experiments
human MC5 receptor = target: T1, human MC5 receptor (Homo sapiens, UniProt P33032); experiment: Competitive binding assay, human MC5 receptor; conditions: CHO cell membranes expressing human MC5 receptor; 200 pM [125I]-NDP-α-MSH; three independent experiments; read-out: hMC-5R (binding data)
T1 construct: expressed in transfected cells; host or cells: Chinese hamster ovary (CHO) cells
Procedure: (§1) The peptides of the present invention were evaluated for antagonist activity in receptor binding assay. Crude membrane preparations were obtained from Chinese hamster ovary cells expressing human MC3, MC4, and MC5 receptors. Cells were rinsed with phosphate-buffered saline (PBS) lacking CaCl2 or MgCl2 (Life Technologies, Gaithersburg, Md., USA), and then detached with enzyme-free dissociation media (Specialty Media, Lavellette, N.J., USA). Cells were pelleted at 2800×g for 10 min and resuspended in membrane buffer (20 mM Tris, pH 7.2, 5 mM ethylenediaminetetraacetic acid) with 5 μg/ml leupeptin, 5 μg/ml aprotinin, 40 μg/ml bacitracin, and 25 μg/ml pefabloc (Boehringer Mannheim). The cells were […] with 10 strokes by using a motor-driven Teflon-coated pestle in a glass homogenizer at low speed. The resulting cell suspension was centrifuged at 4100×g, 4° C., for 20 min. The pellet was resuspended in fresh membrane buffer with protease inhibitors, aliquoted, snap-frozen in liquid nitrogen, and stored at −80° C. The resulting crude membranes were titrated to determine the optimal level necessary for performing binding studies.
(§2) Binding reactions (total volume=250 μl) contained MBB (50 mM Tris, pH 7.2, 2 mM CaCl2, 1 mM MgCl2), 0.1% bovine serum albumin, crude membranes prepared from cells expressing human MC3, MC4, or MC5 receptor, 200 pM of [125I]-NDP-α-MSH (Amersham, Arlington Heighs, Ill., USA), and increasing concentrations of unlabeled test compounds dissolved in dimethylsulfoxide (final concentration=2%). Reactions were incubated for 1 h without shaking and then filtered through 96-well filter plates (Packard), presoaked in 1% polyethyleneimine. Filters were washed 3 times with TNE buffer (50 mM Tris, pH 7.4, 5 mM ethylene-diaminetetraacetic acid, 150 mM NaCl), dried and counted by using Microscint-20 in a Topcount scintillation counter (Packard).

human MC4 receptor = target: T2, human MC4 receptor (Homo sapiens, UniProt P32245); experiment: Competitive binding assay, human MC4 receptor; conditions: for IC50: CHO cell membranes expressing human MC4 receptor, 200 pM [125I]-NDP-α-MSH, three independent experiments, read-out: hMC-4R (binding data); for 3:4: selectivity ratio of hMC-3R to hMC-4R binding values; for 5:4: selectivity ratio of hMC-5R to hMC-4R binding values
T2 construct: expressed in transfected cells; host or cells: Chinese hamster ovary (CHO) cells
Procedure: as §1, §2

[1] = rats; cited from earlier work

T2 sequence (P32245 whole entry): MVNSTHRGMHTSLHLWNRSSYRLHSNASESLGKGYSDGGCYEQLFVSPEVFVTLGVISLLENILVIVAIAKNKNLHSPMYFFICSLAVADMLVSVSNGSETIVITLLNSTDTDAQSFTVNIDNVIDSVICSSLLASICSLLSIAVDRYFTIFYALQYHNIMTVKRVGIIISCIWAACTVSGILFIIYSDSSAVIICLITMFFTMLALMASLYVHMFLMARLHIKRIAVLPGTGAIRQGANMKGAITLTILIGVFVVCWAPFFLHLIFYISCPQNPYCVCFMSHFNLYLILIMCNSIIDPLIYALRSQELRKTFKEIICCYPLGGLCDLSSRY
T1 sequence (P33032 whole entry): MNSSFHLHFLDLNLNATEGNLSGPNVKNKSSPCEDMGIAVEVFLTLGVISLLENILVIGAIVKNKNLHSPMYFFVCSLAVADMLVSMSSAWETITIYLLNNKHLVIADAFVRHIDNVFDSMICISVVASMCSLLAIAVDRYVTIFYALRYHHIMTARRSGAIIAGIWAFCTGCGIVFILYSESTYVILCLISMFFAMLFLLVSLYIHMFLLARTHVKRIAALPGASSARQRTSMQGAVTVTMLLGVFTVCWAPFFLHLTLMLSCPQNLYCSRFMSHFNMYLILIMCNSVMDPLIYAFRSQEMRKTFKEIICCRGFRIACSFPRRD
Chain of human MC3 receptor (P41968 whole entry): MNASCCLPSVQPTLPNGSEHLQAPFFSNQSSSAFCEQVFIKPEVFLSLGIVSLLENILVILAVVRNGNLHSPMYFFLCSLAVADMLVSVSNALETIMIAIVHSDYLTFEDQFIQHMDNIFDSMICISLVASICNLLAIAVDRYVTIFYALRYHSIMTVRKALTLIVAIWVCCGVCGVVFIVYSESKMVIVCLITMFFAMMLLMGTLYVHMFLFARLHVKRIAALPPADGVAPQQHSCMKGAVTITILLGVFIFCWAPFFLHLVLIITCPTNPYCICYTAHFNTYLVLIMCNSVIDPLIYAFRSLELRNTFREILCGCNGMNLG

Row | Compound | IC50 (human MC3 receptor) [nM] | IC50 (human MC5 receptor) [nM] | IC50 (human MC4 receptor) [nM] | 3:4 (human MC4 receptor) | 5:4 (human MC4 receptor) | body weight [1] | food intake [1]
1 | N=C(N)NCCC[C@@H]1NC(=O)[C@@H](Cc2ccc3ccccc3c2)NC(=O)C2CC2C(=O)NCCCC[C@@H](C(N)=O)NC(=O)[C@H](Cc2c[nH]c3ccccc23)NC1=O (single isomer, unassigned) [11 a] | 130 ± 16 | 190 ± 37 | 0.6 ± 0.1 | 216 | 316 | – | –
2 | N=C(N)NCCC[C@@H]1NC(=O)[C@@H](Cc2ccc3ccccc3c2)NC(=O)C2CC2C(=O)NCCCC[C@@H](C(N)=O)NC(=O)[C@H](Cc2c[nH]c3ccccc23)NC1=O (single isomer, unassigned) [11 b] | 270 ± 24 | 540 ± 230 | 1.6 ± 0.2 | 168 | 337 | – | –
3 | N=C(N)NCCC[C@@H]1NC(=O)[C@@H](Cc2ccc3ccccc3c2)NC(=O)[C@H](Cc2c[nH]cn2)NC(=O)[C@@H](N)CC(=O)NCCCC[C@@H](C(N)=O)NC(=O)[C@H](Cc2c[nH]c3ccccc23)NC1=O [Example 3] | 16 ± 5.2 | 24 ± 6.7 | 1.7 ± 0.8 | 9 | 14 | – | –
4 | CC(=O)N[C@H]1CC(=O)NCCCC[C@@H](C(N)=O)NC(=O)[C@H](Cc2c[nH]c3ccccc23)NC(=O)[C@H](CCCNC(=N)N)NC(=O)[C@@H](Cc2ccc3ccccc3c2)NC1=O [Example 6] (Ac-D[d2Nal]RWK-NH2; lactam 1-5) | 220 ± 6.7 | 1100 ± 150 | 4.7 ± 0.6 | 46 | 234 | – | –
5 | N=C(N)NCCC[C@@H]1NC(=O)[C@@H](Cc2ccc3ccccc3c2)NC(=O)[C@H](Cc2c[nH]cn2)NC(=O)CCC(=O)NCCCC[C@@H](C(N)=O)NC(=O)[C@H](Cc2c[nH]c3ccccc23)NC1=O [Example 7] (H[d2Nal]RWK-NH2; linker N-5 via Suc) | 52 ± 7.9 | 200 ± 3.6 | 1 ± 0.1 | 52 | 200 | – | –
6 | HS024 | – | – | – | – | – | increase | increase
7 | MTII | – | – | – | – | – | – | reduced
8 | SHU9119 | – | – | – | – | – | increased | increased

Second part, led by results:

Row | IC50 (human MC3 receptor) [nM] | IC50 (human MC5 receptor) [nM] | IC50 (human MC4 receptor) [nM] | 3:4 (human MC4 receptor) | 5:4 (human MC4 receptor) | Compound | body weight [1] | food intake [1]
9 | 19 ± 1.5 | 71 ± 8.4 | 0.2 ± 0.03 | 95 | 355 | N=C(N)NCCC[C@@H]1NC(=O)[C@@H](Cc2ccc3ccccc3c2)NC(=O)[C@H](Cc2c[nH]cn2)NC(=O)CCC(=O)NC[C@@H](C(N)=O)NC(=O)[C@H](Cc2c[nH]c3ccccc23)NC1=O [Example 8] (H[d2Nal]RW[Dap]-NH2; linker N-5 via Suc) | – | –
10 | – | – | – | 300 | 270 | N=C(N)NCCC[C@@H]1NC(=O)[C@@H](Cc2ccc3ccccc3c2)NC(=O)/C=C\C(=O)NCCCC[C@@H](C(N)=O)NC(=O)[C@H](Cc2c[nH]c3ccccc23)NC1=O [Example 12] ([d2Nal]RWK-NH2; linker N-4 via Maleoyl) | – | –
11 | 1500 ± 1100 | 2500 ± 1000 | 46 ± 6 | 37 | 54 | CC(C)(C)c1ccc(C[C@H]2NC(=O)CCC(=O)NCCCC[C@@H](C(N)=O)NC(=O)[C@H](Cc3c[nH]c4ccccc34)NC(=O)[C@H](CCCNC(=N)N)NC2=O)cc1 [Example 14] ([dPhe(4-tBu)]RWK-NH2; linker N-4 via Suc) | – | –
12 | 5600 ± 3900 | 3000 ± 1000 | 69 ± 12 | 81 | 44 | N=C(N)NCCC[C@@H]1NC(=O)[C@@H](Cc2csc3ccccc23)NC(=O)CCC(=O)NCCCC[C@@H](C(N)=O)NC(=O)[C@H](Cc2c[nH]c3ccccc23)NC1=O [Example 16] ([dBta]RWK-NH2; linker N-4 via Suc) | – | –
13 | 570 ± 290 | 440 ± 240 | 3.5 ± 0.3 | 163 | 126 | N=C(N)NCCC[C@@H]1NC(=O)[C@@H](Cc2ccc(Cl)cc2)NC(=O)CCC(=O)NCCCC[C@@H](C(N)=O)NC(=O)[C@H](Cc2c[nH]c3ccccc23)NC1=O [Example 17] ([dPhe(4-Cl)]RWK-NH2; linker N-4 via Suc) | – | –
14 | 4800 ± 1000 | 10000 ± 2000 | 70 ± 10 | 69 | 143 | N=C(N)NCCC[C@@H]1NC(=O)[C@@H](Cc2ccc(F)cc2)NC(=O)CCC(=O)NCCCC[C@@H](C(N)=O)NC(=O)[C@H](Cc2c[nH]c3ccccc23)NC1=O [Example 19] ([dPhe(4-F)]RWK-NH2; linker N-4 via Suc) | – | –
15 | 3700 ± 1200 | 2100 ± 500 | 44 ± 7 | 84 | 48 | NCCCC[C@@H]1NC(=O)[C@@H](Cc2ccc3ccccc3c2)NC(=O)CCC(=O)NCCCC[C@@H](C(N)=O)NC(=O)[C@H](Cc2c[nH]c3ccccc23)NC1=O [Example 20] ([d2Nal]KWK-NH2; linker N-4 via Suc) | – | –
16 | 3000 ± 1100 | 10000 ± 8700 | 40 ± 5 | 75 | 250 | N=C(N)NCCC[C@@H]1NC(=O)[C@@H](Cc2ccc3ccccc3c2)NC(=O)[C@H](CCCCN)NC(=O)CCC(=O)NCCCC[C@@H](C(N)=O)NC(=O)[C@H](Cc2c[nH]c3ccccc23)NC1=O [Example 24] (K[d2Nal]RWK-NH2; linker N-5 via Suc) | – | –
